Assay results published in the Kinase Knowledgebase extract (Sharma et al. 2016).

What follows are compounds tested against PIK3CA (human) (UniProt P42336) (assay: Assessment of PIK3CA Kinase Activity).
Sequence of PIK3CA (human) (P42336 whole entry, looked up): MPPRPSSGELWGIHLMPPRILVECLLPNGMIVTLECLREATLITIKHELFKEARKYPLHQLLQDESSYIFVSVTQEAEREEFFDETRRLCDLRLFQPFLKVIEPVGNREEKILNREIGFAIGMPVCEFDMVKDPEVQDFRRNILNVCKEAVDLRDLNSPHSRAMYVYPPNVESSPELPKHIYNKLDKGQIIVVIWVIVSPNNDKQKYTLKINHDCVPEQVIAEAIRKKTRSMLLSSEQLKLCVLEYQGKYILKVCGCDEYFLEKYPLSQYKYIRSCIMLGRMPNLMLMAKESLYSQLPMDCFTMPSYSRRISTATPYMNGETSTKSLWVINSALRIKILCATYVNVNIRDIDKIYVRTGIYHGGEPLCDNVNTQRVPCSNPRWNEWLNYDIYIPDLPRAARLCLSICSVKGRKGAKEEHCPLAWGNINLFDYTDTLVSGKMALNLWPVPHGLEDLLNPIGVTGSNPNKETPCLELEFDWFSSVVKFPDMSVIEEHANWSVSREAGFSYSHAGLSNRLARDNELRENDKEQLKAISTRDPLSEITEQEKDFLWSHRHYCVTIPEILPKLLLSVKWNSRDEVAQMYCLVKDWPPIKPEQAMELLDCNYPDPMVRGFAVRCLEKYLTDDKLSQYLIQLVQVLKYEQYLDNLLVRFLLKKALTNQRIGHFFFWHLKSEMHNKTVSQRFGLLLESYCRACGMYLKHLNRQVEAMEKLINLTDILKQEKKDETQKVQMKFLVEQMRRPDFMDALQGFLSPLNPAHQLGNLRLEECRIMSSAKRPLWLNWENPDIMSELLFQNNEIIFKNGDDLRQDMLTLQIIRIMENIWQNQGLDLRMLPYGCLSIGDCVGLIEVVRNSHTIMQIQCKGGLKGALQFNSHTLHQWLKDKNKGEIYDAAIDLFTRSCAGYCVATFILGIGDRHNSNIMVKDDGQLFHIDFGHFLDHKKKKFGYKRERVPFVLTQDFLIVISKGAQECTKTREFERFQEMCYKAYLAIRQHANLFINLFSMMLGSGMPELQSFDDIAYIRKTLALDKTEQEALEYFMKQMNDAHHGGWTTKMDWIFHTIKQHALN

SMILES	IC50 [nM]
CS(=O)(=O)NC1CCCN(c2nn3c(-c4cnc(N)c(C(F)(F)F)c4)cnc3s2)C1 (centres undefined)	50 to 1000
CC(C)S(=O)(=O)N1CCC(Nc2nn3c(-c4cnc(N)c(C(F)(F)F)c4)cnc3s2)CC1	291
CN1CCN(c2ncc(-c3cnc4sc(NC5CCN(S(C)(=O)=O)CC5)nn34)cc2C(F)(F)F)CC1	23000
Nc1ncc(-c2cnc3sc(N4CCNCC4)nn23)cc1C(F)(F)F	1300
COc1cncc(-c2cnc3sc(NC4CCNCC4)nn23)c1	50 to 1000
COc1cncc(-c2cnc3sc(NCCCNS(C)(=O)=O)nn23)c1	50 to 1000
COc1cncc(-c2cnc3sc(NC4CCN(C(=O)OC(C)(C)C)CC4)nn23)c1	50 to 1000
Nc1ncc(-c2cnc3sc(N4CCC(C(=O)O)CC4)nn23)cc1C(F)(F)F	50 to 1000
CC(=O)N[C@H]1CC[C@@H](Nc2nn3c(-c4cnc(N)c(C(F)(F)F)c4)cnc3s2)CC1	50 to 1000
Nc1ncc(-c2cnc3sc(N4CCCC(O)C4)nn23)cc1C(F)(F)F (centres undefined)	50 to 1000
NCCNc1nn2c(-c3cnc(N)c(C(F)(F)F)c3)cnc2s1	50 to 1000
Cc1cncc(-c2cnc3sc(NC4CCN(S(C)(=O)=O)CC4)nn23)c1	50 to 1000
CC(C)(C)OC(=O)NC1CCN(c2nn3c(-c4cnc(N)c(C(F)(F)F)c4)cnc3s2)C1 (centres undefined)	177
CC(=O)O[C@H]1CC[C@H](Nc2nn3c(-c4cnc(N)c(C(F)(F)F)c4)c(Cl)nc3s2)CC1	50 to 1000
CC(C)(C)OC(=O)NCCNc1nn2c(-c3cnc(N)c(C(F)(F)F)c3)cnc2s1	50 to 1000
Nc1ncc(-c2cnc3sc(N4CC5(CCNCC5)C4)nn23)cc1C(F)(F)F	50 to 1000
Nc1ncc(-c2cnc3sc(NC4CCC5(CC4)OCCO5)nn23)cc1C(F)(F)F	34
COC1CCN(c2nn3c(-c4cnc(N)c(C(F)(F)F)c4)cnc3s2)CC1	50 to 1000
Nc1ncc(-c2c(Cl)nc3sc(N[C@H]4CC[C@H](N)CC4)nn23)cc1C(F)(F)F	109
Nc1ncc(-c2cnc3sc(NC4CCNCC4)nn23)cc1C(F)(F)F	67

SMILES	IC50 [nM]
CS(=O)(=O)N1CC2(CCCN(c3nn4c(-c5cnc(N)c(C(F)(F)F)c5)cnc4s3)C2)C1	50 to 1000
CO[C@H]1CC[C@H](N(C)c2nn3c(-c4cnc(N)c(C(F)(F)F)c4)cnc3s2)CC1	27
Nc1ncc(-c2cnc3sc(N4CCC(O)CC4)nn23)cc1C(F)(F)F	50 to 1000
CN(c1nn2c(-c3cnc(N)c(C(F)(F)F)c3)cnc2s1)[C@H]1CC[C@@](C)(O)CC1	50 to 1000
CCNC(=O)N[C@H]1CC[C@@H](Nc2nn3c(-c4cnc(N)c(C(F)(F)F)c4)c(Cl)nc3s2)CC1	50 to 1000
Nc1ncc(-c2cnc3sc(N4CCCC(N)C4)nn23)cc1C(F)(F)F (centres undefined)	50 to 1000
CC(C)(C)OC(=O)N[C@H]1CC[C@@H](Nc2nn3c(-c4cnc(N)c(C(F)(F)F)c4)cnc3s2)CC1	50 to 1000
Nc1ncc(-c2cnc3sc(NCCN4CCNCC4)nn23)cc1C(F)(F)F	50 to 1000
CC(=O)N1CCC(Nc2nn3c(-c4cnc(N)c(C(F)(F)F)c4)cnc3s2)CC1	18
Nc1ncc(-c2cnc3sc(N4CCC(N)C4)nn23)cc1C(F)(F)F (centres undefined)	1000
CS(=O)(=O)N1CCN(c2nn3c(-c4cnc(N)c(C(F)(F)F)c4)cnc3s2)CC1	50 to 1000
CC(C)(C)OC(=O)N1CCC2(CC1)CCN(c1nn3c(-c4cnc(N)c(C(F)(F)F)c4)cnc3s1)CC2	1600
COC(=O)C1CCN(c2nn3c(-c4cnc(N)c(C(F)(F)F)c4)cnc3s2)CC1	297
CCNC(=O)NCCNc1nn2c(-c3cnc(N)c(C(F)(F)F)c3)cnc2s1	50 to 1000
CN(c1nn2c(-c3cnc(N)c(C(F)(F)F)c3)cnc2s1)[C@H]1CC[C@](C)(O)CC1	205
C[C@]1(O)CC[C@H](Nc2nn3c(-c4cnc(N)c(C(F)(F)F)c4)cnc3s2)CC1	1 to 50
CS(=O)(=O)N1CCC(Nc2nn3c(-c4cncc(C#N)c4)cnc3s2)CC1	50 to 1000
CN(c1nn2c(-c3cnc(N)c(C(F)(F)F)c3)cnc2s1)[C@H]1CC[C@H](O)CC1	50 to 1000
CN(c1nn2c(-c3cnc(N)c(C(F)(F)F)c3)cnc2s1)C1CCN(C(=O)OC(C)(C)C)CC1	50 to 1000
